This is an account of results in patent US9574188B2, “DNA restriction library tagging and analysis” (Harborgen Biotech LLC, priority 2014, dated 2017).

SMILES strings stand for the structures.

The assay has as its system RKO cell line. The assay can be described thus: Effect of methylation inhibitor on global methylation percentage (restriction library qPCR). Format: cell-based. The procedure: The following steps are performed to create (including amplify) the restriction library, and measure methylation level: • 1. Add equal amount of a genomic DNA into two tubes containing the Msp I restriction library making system or Hpa II restriction library making system. • 2. Incubate the two tubes in PCR instrument. Repeat the following thermal cycle 100 times: 22 degree Celsius for 2 minutes, 16 degree 2 minutes, and 4 degree 2 minutes.
• Hpa II, Msp I and Cla I have more than 75% activity left at 22 degree. The generated restriction fragments and adaptors have the compatible CG-5′ overhang that contain phosphate at 5′ ends. At 4 degree Celsius, the compatible overhangs anneal together then T4 DNA ligases join the two annealed ends. • 3. […] Consequently the hetero-ligation is no longer recognizable by Cla I, Msp I or Hpa II. • 4. […] The proportion of hetero-ligation products becomes higher and higher, while the proportion of self-ligation products becomes lower and lower accompanied with repeating the cycle digestion-ligation reaction. • 6. All restriction sites in the Msp I restriction library making system disappear after hetero-ligation between restriction fragments and the adapters at reaction end, but not the methylated restriction sites (CCGG) in Hpa II restriction library making system. • 7. […]
On the technique in general: In qPCR the cycle at which signal appears reflects the starting amount.

Consider `Nc1ncn([C@H]2C[C@H](O)[C@@H](CO)O2)c(=O)n1` [DAC, 5-aza-2′ deoxycytidine], for which, for the setting “5 μM for 3 days prior to harvest, decreased from 96.7% (before treatment)”, the “methylation percentage of RKO cells after methylation inhibitor treatment” value stood at 35.6%. The “effect on the methylation level of RKO cell line” value (FIG. 9 legend) is recorded as “significantly affected”.
